Source: patent publication US20220409619A1, “INHIBITORS OF HUMAN IMMUNODEFICIENCY VIRUS REPLICATION” (VIIV HEALTHCARE UK (No. 5) LIMITED, priority 2019, published 2022)

What was measured:
[1] = test system: recombinant NL4-3 virus (nef section replaced with Renilla luciferase gene) in MT-2 cells; assay: HIV cell culture assay (antiviral activity, luciferase readout); type: cell-based; conditions: Renilla, NL43
Description: HIV cell culture assay—MT-2 cells, 293T cells and the proviral DNA clone of NL4-3 virus were obtained from the NIH AIDS Research and Reference Reagent Program. MT-2 cells were propagated in RPMI 1640 media supplemented with 10% heat inactivated fetal bovine serum (FBS), 100 μg/ml penicillin G and up to 100 units/mL streptomycin. The 293T cells were propagated in DMEM media supplemented with 10% heat inactivated FBS, 100 μg/mL penicillin G and 100 μg/mL streptomycin. A recombinant NL4-3 proviral clone, in which a section of the nef gene was replaced with the Renilla luciferase gene, was used to make the reference virus used in these studies. The recombinant virus was prepared through transfection of the recombinant NL4-3 proviral clone into 293T cells using Transit-293 Transfection Reagent from Mirus Bio LLC (Madison, Wis.). Supernatent was harvested after 2-3 days and the amount of virus present was titered in MT-2 cells using luciferase enzyme activity as a marker by measuring luciferase enzyme activity. Luciferase was quantitated using the EnduRen Live Cell Substrate from Promega (Madison, Wis.). Antiviral activities of compounds toward the recombinant virus were quantified by measuring luciferase activity in MT-2 cells infected for 4-5 days with the recombinant virus in the presence of serial dilutions of the compound.
The 50% effective concentration (EC50) was calculated by using the exponential form of the median effect equation where (Fa)=1/[1+(ED50/drug conc.)^m] (Johnson V A, Byington R T. Infectivity Assay. In Techniques in HIV Research. ed. Aldovini A, Walker B D. 71-76. New York: Stockton Press. 1990). Curve fitting and analysis were performed with ActivityBase XE Runner software version 9.1.0.4 using model 203 (ID Business Solutions, LTD, Guildford, UK).

[2] = Compound cytotoxicity, XTT-based colorimetric assay; type: cell-based; conditions: human; uninfected MT2 cells, day 4, XTT-based colorimetric assay
Description: Compound cytotoxicity and the corresponding CC50 values were determined using the same protocol as described in the antiviral assay except that uninfected cells were used. Cytotoxicity was assessed on day 4 in uninfected MT2 cells by using a XTT (2,3-bis[2-Methoxy-4-nitro-5-sulfophenyl]-2H-tetrazolium-5-carboxyanilide inner salt)-based colorimetric assay (Sigma-Aldrich, St Louis, Mo.).

Row | SMILES | EC50 [1] | CC50 at 4 days [2]
1 | COc1cnc(-c2cc(=O)n(-c3ccc(Cl)c4c(NS(C)(=O)=O)nn(C)c34)c([C@H](Cc3cc(F)cc(F)c3)NC(=O)Cn3nc(C(F)F)c4c3C(F)(F)[C@@H]3C[C@H]43)n2)cn1 (atropisomer, axis not shown; (P)) [Example 13, N-((S)-1-((1P)-1-(4-chloro-1-methyl-3-(methylsulfonamido)-1H-indazol-7-yl)-4-(5-methoxypyrazin-2-yl)-6-oxo-1,6-dihydropyrimidin-2-yl)-2-(3,5-difluorophenyl)ethyl)-2-((3bS,4aR)-3-(difluoromethyl)-5,5-difluoro-3b,4,4a,5-tetrahydro-1H-cyclopropa[3,4]cyclopenta[1,2-c]pyrazol-1-yl)acetamide] | 0.2 nM | > 100 nM
2 | Cn1nc(NS(C)(=O)=O)c2c(Cl)ccc(-n3c([C@@H](Cc4cc(F)cc(F)c4)NC(=O)Cn4nc(C(F)F)c5c4C(F)(F)[C@@H]4C[C@H]54)nc(-c4ccccc4)cc3=O)c21 (atropisomer, axis not shown; (aR)) [Example 2, N-((R)-1-(1-(4-chloro-1-methyl-3-(methylsulfonamido)-1H-indazol-7-yl)-6-oxo-4-phenyl-1,6-dihydropyrimidin-2-yl)-2-(3,5-difluorophenyl)ethyl)-2-((3bS,4aR)-3-(difluoromethyl)-5,5-difluoro-3b,4,4a,5-tetrahydro-1H-cyclopropa[3,4]cyclopenta[1,2-c]pyrazol-1-yl)acetamide] | 190 nM | > 500 nM
3 | O=C(Cn1nc(C(F)F)c2c1C(F)(F)[C@@H]1C[C@H]21)N[C@@H](Cc1cc(F)cc(F)c1)c1nc(-c2nccc(C(F)F)n2)cc(=O)n1-c1ccc(Cl)c2c(NS(=O)(=O)C3CC3)nn(CC(F)F)c12 (atropisomer, axis not shown; (aR)) [Example 27, N-((S)-1-((1′P)-1′-(4-chloro-3-(cyclopropanesulfonamido)-1-(2,2-difluoroethyl)-1H-indazol-7-yl)-4-(difluoromethyl)-6′-oxo-1′,6′-dihydro-[2,4′-bipyrimidin]-2′-yl)-2-(3,5-difluorophenyl)ethyl)-2-((3bS,4aR)-3-(difluoromethyl)-5,5-difluoro-3b,4,4a,5-tetrahydro-1H-cyclopropa[3,4]cyclopenta[1,2-c]pyrazol-1-yl)acetamide] | 0.13 nM | > 100 nM
4 | Cn1nc(NS(C)(=O)=O)c2c(Cl)ccc(-n3c([C@H](Cc4cc(F)cc(F)c4)NC(=O)Cn4nc(C(F)F)c5c4C(F)(F)[C@@H]4C[C@H]54)nc(-c4csc(S(C)(=O)=O)n4)cc3=O)c21 (atropisomer, axis not shown; (P)) [Example 17, N-((S)-1-((1P)-1-(4-chloro-1-methyl-3-(methylsulfonamido)-1H-indazol-7-yl)-4-(2-(methylsulfonyl)thiazol-4-yl)-6-oxo-1,6-dihydropyrimidin-2-yl)-2-(3,5-difluorophenyl)ethyl)-2-((3bS,4aR)-3-(difluoromethyl)-5,5-difluoro-3b,4,4a,5-tetrahydro-1H-cyclopropa[3,4]cyclopenta[1,2-c]pyrazol-1-yl)acetamide] | 0.81 nM | > 100 nM
5 | COc1ccnc(-c2cc(=O)n(-c3ccc(Cl)c4c(NS(=O)(=O)C5CC5)nn(CC(F)F)c34)c([C@H](Cc3cc(F)cc(F)c3)NC(=O)Cn3nc(C(F)F)c4c3C(F)(F)[C@@H]3C[C@H]43)n2)n1 (atropisomer, axis not shown; (aR)) [Example 33, N-((S)-1-((1′P)-1′-(4-chloro-3-(cyclopropanesulfonamido)-1-(2,2-difluoroethyl)-1H-indazol-7-yl)-4-methoxy-6′-oxo-1′,6′-dihydro-[2,4′-bipyrimidin]-2′-yl)-2-(3,5-difluorophenyl)ethyl)-2-((3bS,4aR)-3-(difluoromethyl)-5,5-difluoro-3b,4,4a,5-tetrahydro-1H-cyclopropa[3,4]cyclopenta[1,2-c]pyrazol-1-yl)acetamide] | 0.13 nM | > 100 nM
6 | O=C(Cn1nc(C(F)F)c2c1C(F)(F)[C@@H]1C[C@H]21)N[C@@H](Cc1cc(F)cc(F)c1)c1nc(-c2cccc(C(F)(F)F)n2)cc(=O)n1-c1ccc(Cl)c2c(NS(=O)(=O)C3CC3)nn(CC(F)F)c12 (atropisomer, axis not shown; (P)) [Example 44, N-((S)-1-((1P)-1-(4-chloro-3-(cyclopropanesulfonamido)-1-(2,2-difluoroethyl)-1H-indazol-7-yl)-6-oxo-4-(6-(trifluoromethyl)pyridin-2-yl)-1,6-dihydropyrimidin-2-yl)-2-(3,5-difluorophenyl)ethyl)-2-((3bS,4aR)-3-(difluoromethyl)-5,5-difluoro-3b,4,4a,5-tetrahydro-1H-cyclopropa[3,4]cyclopenta[1,2-c]pyrazol-1-yl)acetamide] | 0.24 nM | > 100 nM
7 | COc1cnc(-c2cc(=O)n(-c3ccc(Cl)c4c(NS(=O)(=O)C5CC5)nn(CC(F)F)c34)c([C@H](Cc3cc(F)cc(F)c3)NC(=O)Cn3nc(C(F)F)c4c3C(F)(F)[C@@H]3C[C@H]43)n2)cn1 (atropisomer, axis not shown; (P)) [Example 31, N-((S)-1-((1P)-1-(4-chloro-3-(cyclopropanesulfonamido)-1-(2,2-difluoroethyl)-1H-indazol-7-yl)-4-(5-methoxypyrazin-2-yl)-6-oxo-1,6-dihydropyrimidin-2-yl)-2-(3,5-difluorophenyl)ethyl)-2-((3bS,4aR)-3-(difluoromethyl)-5,5-difluoro-3b,4,4a,5-tetrahydro-1H-cyclopropa[3,4]cyclopenta[1,2-c]pyrazol-1-yl)acetamide] | 0.53 nM | > 100 nM
8 | Cn1nc(NS(C)(=O)=O)c2c(Cl)ccc(-n3c([C@H](Cc4cc(F)cc(F)c4)NC(=O)Cn4nc(C(F)F)c5c4C(F)(F)[C@@H]4C[C@H]54)nc(-c4cnccn4)cc3=O)c21 (atropisomer, axis not shown; (P)) [Example 20, N-((S)-1-((1P)-1-(4-chloro-1-methyl-3-(methylsulfonamido)-1H-indazol-7-yl)-6-oxo-4-(pyrazin-2-yl)-1,6-dihydropyrimidin-2-yl)-2-(3,5-difluorophenyl)ethyl)-2-((3bS,4aR)-3-(difluoromethyl)-5,5-difluoro-3b,4,4a,5-tetrahydro-1H-cyclopropa[3,4]cyclopenta[1,2-c]pyrazol-1-yl)acetamide] | 0.16 nM | > 100 nM
9 | Cc1cc(C)nc(-c2cc(=O)n(-c3ccc(Cl)c4c(NS(C)(=O)=O)nn(C)c34)c([C@H](Cc3cc(F)cc(F)c3)NC(=O)Cn3nc(C(F)F)c4c3C(F)(F)[C@@H]3C[C@H]43)n2)n1 (atropisomer, axis not shown; (aR)) [Example 4, N-((S)-1-((1′P)-1′-(4-chloro-1-methyl-3-(methylsulfonamido)-1H-indazol-7-yl)-4,6-dimethyl-6′-oxo-1′,6′-dihydro-[2,4′-bipyrimidin]-2′-yl)-2-(3,5-difluorophenyl)ethyl)-2-((3bS,4aR)-3-(difluoromethyl)-5,5-difluoro-3b,4,4a,5-tetrahydro-1H-cyclopropa[3,4]cyclopenta[1,2-c]pyrazol-1-yl)acetamide] | 0.044 nM | > 100 nM
10 | Cn1nc(NS(C)(=O)=O)c2c(Cl)ccc(-n3c([C@H](Cc4cc(F)cc(F)c4)NC(=O)Cn4nc(C(F)F)c5c4C(F)(F)[C@@H]4C[C@H]54)nc(-c4nccc(C(F)F)n4)cc3=O)c21 (atropisomer, axis not shown; (aR)) [Example 5, N-((S)-1-((1′P)-1′-(4-chloro-1-methyl-3-(methylsulfonamido)-1H-indazol-7-yl)-4-(difluoromethyl)-6′-oxo-1′,6′-dihydro-[2,4′-bipyrimidin]-2′-yl)-2-(3,5-difluorophenyl)ethyl)-2-((3bS,4aR)-3-(difluoromethyl)-5,5-difluoro-3b,4,4a,5-tetrahydro-1H-cyclopropa[3,4]cyclopenta[1,2-c]pyrazol-1-yl)acetamide] | 0.054 nM | > 100 nM
11 | CCOc1cnc(-c2cc(=O)n(-c3ccc(Cl)c4c(NS(=O)(=O)C5CC5)nn(CC(F)F)c34)c([C@H](Cc3cc(F)cc(F)c3)NC(=O)Cn3nc(C(F)F)c4c3C(F)(F)[C@@H]3C[C@H]43)n2)nc1 (atropisomer, axis not shown; (aR)) [Example 29, N-((S)-1-((1′P)-1′-(4-chloro-3-(cyclopropanesulfonamido)-1-(2,2-difluoroethyl)-1H-indazol-7-yl)-5-ethoxy-6′-oxo-1′,6′-dihydro-[2,4′-bipyrimidin]-2′-yl)-2-(3,5-difluorophenyl)ethyl)-2-((3bS,4aR)-3-(difluoromethyl)-5,5-difluoro-3b,4,4a,5-tetrahydro-1H-cyclopropa[3,4]cyclopenta[1,2-c]pyrazol-1-yl)acetamide] | 0.052 nM | > 100 nM
